Results from ChEMBL document CHEMBL1201862, “PubChem BioAssay data set” (2004).
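These data come from cells grown in 96-well plates and exposed to compound for 48 hours at five concentrations. GI50 marks 50% less growth.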 Activity calls are given as the source filed them. Cut-off read from the data, not from the text of the source: active = GI50 up to about 1.1 µM and inactive = higher.

Tests used:
Experiment in all cases: DTP human tumour cell line panel, 48 h
[1] = tested on: A549
[2] = tested on: ACHN
[3] = tested on: BT-549
[4] = tested on: CAKI-1
[5] = tested on: CCRF-CEM
[6] = tested on: COLO 205
[7] = tested on: DU-145
[8] = tested on: EKVX
[9] = tested on: HCC 2998
[10] = tested on: HCT-116
[11] = tested on: HCT-15
[12] = tested on: HL-60
[13] = tested on: HOP-62
[14] = tested on: HOP-92
[15] = tested on: HT-29
[16] = tested on: Hs-578T
[17] = tested on: IGROV-1
[18] = tested on: K562
[19] = tested on: KM12
[20] = tested on: LOX IMVI
[21] = tested on: M14
[22] = tested on: MCF7
[23] = tested on: MDA-MB-231
[24] = tested on: MDA-MB-435
[25] = tested on: MDA-N
[26] = tested on: MOLT-4
[27] = tested on: Malme-3M
[28] = tested on: NCI-H226
[29] = tested on: NCI-H23
[30] = tested on: NCI-H460
[31] = tested on: NCI-H522
[32] = tested on: NCI/ADR-RES
[33] = tested on: OVCAR-3
[34] = tested on: OVCAR-4
[35] = tested on: OVCAR-5
[36] = tested on: OVCAR-8
[37] = tested on: PC-3
[38] = tested on: RPMI-8226
[39] = tested on: RXF 393
[40] = tested on: SF-268
[41] = tested on: SF-295
[42] = tested on: SF-539
[43] = tested on: SK-MEL-28
[44] = tested on: SK-MEL-2
[45] = tested on: SK-MEL-5
[46] = tested on: SK-OV-3
[47] = tested on: SN12C
[48] = tested on: SNB-19
[49] = tested on: SNB-75
[50] = tested on: SR
[51] = tested on: SW-620
[52] = tested on: T47D
[53] = tested on: TK-10
[54] = tested on: U-251
[55] = tested on: UACC-257
[56] = tested on: UACC-62
[57] = tested on: UO-31
[58] = tested on: 786-0
[59] = tested on: A498

For `O=C1CC(/C=C/c2ccco2)=C(O)C1=O`, the GI50 [1] was 23.9 µM (inactive), the GI50 [2] was 15.9 µM (inactive) and the GI50 [3] was 8.49 µM (inactive). The GI50 [4] was 14.6 µM (inactive), the GI50 [5] was 3 µM (inactive) and the GI50 [6] was 15.7 µM (inactive). For the same compound, the GI50 [7] was 16.2 µM (inactive), the GI50 [8] was 15.7 µM (inactive) and the GI50 [9] was 17.9 µM (inactive). The GI50 [10] was 13.6 µM (inactive), the GI50 [11] was 13.5 µM and the GI50 [12] was 33.7 µM (inactive). The GI50 [13] was 1.84 µM (inactive), the GI50 [14] was 13.8 µM (inactive) and the GI50 [15] was 11.7 µM (inactive). The GI50 [16] was 16.7 µM (inactive), the GI50 [17] was 10.7 µM (inactive) and the GI50 [18] was 12.1 µM (inactive). For the same compound, the GI50 [19] was 13.8 µM (inactive), the GI50 [20] was 12.8 µM (inactive) and the GI50 [21] was 14.8 µM (inactive). For the same compound, the GI50 [22] was 7.01 µM (inactive), the GI50 [23] was 17.7 µM (inactive) and the GI50 [24] was 16.4 µM (inactive). The GI50 [25] was 12.3 µM (inactive), the GI50 [26] was 14 µM (inactive) and the GI50 [27] was 11.6 µM (inactive). For the same compound, the GI50 [28] was 22 µM (inactive), the GI50 [29] was 11.6 µM (inactive) and the GI50 [30] was 17.6 µM (inactive). For the same compound, the GI50 [31] was 12.2 µM (inactive), the GI50 [32] was 24.2 µM (inactive) and the GI50 [33] was 13 µM (inactive). The GI50 [34] was 14.2 µM (inactive), the GI50 [35] was 13.9 µM (inactive) and the GI50 [36] was 13.8 µM (inactive). The GI50 [37] was 10.2 µM (inactive), the GI50 [38] was 13.2 µM (inactive) and the GI50 [39] was 9.59 µM (inactive). For the same compound, the GI50 [40] was 18.6 µM (inactive), the GI50 [41] was 19.5 µM (inactive) and the GI50 [42] was 13.9 µM (inactive). For the same compound, the GI50 [43] was 28.8 µM (inactive), the GI50 [44] was 16.4 µM (inactive) and the GI50 [45] was 13.7 µM (inactive). The GI50 [46] was 21.9 µM (inactive), the GI50 [47] was 13.6 µM (inactive) and the GI50 [48] was 14.8 µM (inactive). For the same compound, the GI50 [49] was 16 µM (inactive), the GI50 [50] was 6.05 µM (inactive) and the GI50 [51] was 10.2 µM (inactive). The GI50 [52] was 14.2 µM (inactive), the GI50 [53] was 22.5 µM (inactive) and the GI50 [54] was 13.6 µM (inactive). The GI50 [55] was 15.7 µM (inactive), the GI50 [56] was 15.3 µM (inactive) and the GI50 [57] was 20.7 µM (inactive).

`COc1ccc(/N=C2/SC(=N/N=c3\sc4ccccc4n3C)S/C2=N/c2ccc(OC)cc2)cc1` was tested, and the GI50 [58] was 47.3 µM (inactive), the GI50 [1] was 20.4 µM (inactive) and the GI50 [2] was 36.8 µM (inactive). For the same compound, the GI50 [3] was 67.9 µM (inactive), the GI50 [4] was > 100 µM (inactive) and the GI50 [6] was > 100 µM (inactive). The GI50 [7] was > 100 µM (inactive), the GI50 [8] was > 100 µM (inactive) and the GI50 [9] was > 100 µM (inactive). The GI50 [10] was 29.8 µM (inactive), the GI50 [11] was greater than 100 µM and the GI50 [13] was 31.6 µM (inactive). For the same compound, the GI50 [14] was 89.1 µM (inactive), the GI50 [15] was > 100 µM (inactive) and the GI50 [16] was 36.2 µM (inactive). The GI50 [17] was > 100 µM (inactive), the GI50 [18] was 2.92 µM (inactive) and the GI50 [19] was > 100 µM (inactive). The GI50 [21] was > 100 µM (inactive), the GI50 [22] was > 100 µM (inactive) and the GI50 [23] was 2.97 µM (inactive). The GI50 [24] was > 100 µM (inactive), the GI50 [25] was > 100 µM (inactive) and the GI50 [26] was 13.1 µM (inactive). The GI50 [27] was > 100 µM (inactive), the GI50 [28] was 49 µM (inactive) and the GI50 [29] was 41.9 µM (inactive). The GI50 [30] was > 100 µM (inactive), the GI50 [31] was 70.8 µM (inactive) and the GI50 [32] was > 100 µM (inactive). The GI50 [33] was > 100 µM (inactive), the GI50 [35] was > 100 µM (inactive) and the GI50 [36] was > 100 µM (inactive). For the same compound, the GI50 [37] was > 100 µM (inactive), the GI50 [38] was > 100 µM (inactive) and the GI50 [39] was 34 µM (inactive). The GI50 [40] was > 100 µM (inactive), the GI50 [41] was 51.8 µM (inactive) and the GI50 [42] was > 100 µM (inactive). For the same compound, the GI50 [43] was > 100 µM (inactive), the GI50 [44] was > 100 µM (inactive) and the GI50 [45] was 98.9 µM (inactive). The GI50 [46] was 76.7 µM (inactive), the GI50 [47] was > 100 µM (inactive) and the GI50 [48] was > 100 µM (inactive). For the same compound, the GI50 [49] was 24.6 µM (inactive), the GI50 [50] was > 100 µM (inactive) and the GI50 [51] was > 100 µM (inactive). For the same compound, the GI50 [52] was 23.3 µM (inactive), the GI50 [53] was > 100 µM (inactive) and the GI50 [54] was 55.5 µM (inactive). For the same compound, the GI50 [55] was > 100 µM (inactive), the GI50 [56] was 37.6 µM (inactive) and the GI50 [57] was > 100 µM (inactive).

In the case of `CN(C(=O)c1ccc(Cl)s1)C(=S)N(C)C(=O)c1ccc(Cl)s1`, the GI50 [58] is reported as > 10 µM (inactive), the GI50 [59] is reported as > 10 µM (inactive) and the GI50 [1] is reported as > 10 µM (inactive). The GI50 [2] was > 10 µM (inactive), the GI50 [3] was > 10 µM (inactive) and the GI50 [4] was > 10 µM (inactive). The GI50 [5] was > 10 µM (inactive), the GI50 [6] was > 10 µM (inactive) and the GI50 [7] was > 10 µM (inactive). The GI50 [8] was > 10 µM (inactive), the GI50 [9] was > 10 µM (inactive) and the GI50 [10] was > 10 µM (inactive). For the same compound, the GI50 [11] was greater than 10 µM, the GI50 [12] was > 10 µM (inactive) and the GI50 [13] was > 10 µM (inactive). The GI50 [14] was > 10 µM (inactive), the GI50 [15] was > 10 µM (inactive) and the GI50 [16] was > 10 µM (inactive). The GI50 [17] was > 10 µM (inactive), the GI50 [18] was > 10 µM (inactive) and the GI50 [19] was > 10 µM (inactive). For the same compound, the GI50 [20] was > 10 µM (inactive), the GI50 [21] was > 10 µM (inactive) and the GI50 [22] was > 10 µM (inactive). The GI50 [23] was > 10 µM (inactive), the GI50 [25] was > 10 µM (inactive) and the GI50 [26] was > 10 µM (inactive). For the same compound, the GI50 [27] was > 10 µM (inactive), the GI50 [28] was > 10 µM (inactive) and the GI50 [29] was > 10 µM (inactive). The GI50 [30] was > 10 µM (inactive), the GI50 [31] was > 10 µM (inactive) and the GI50 [32] was > 10 µM (inactive). The GI50 [33] was > 10 µM (inactive), the GI50 [34] was > 10 µM (inactive) and the GI50 [35] was > 10 µM (inactive). For the same compound, the GI50 [36] was > 10 µM (inactive), the GI50 [37] was > 10 µM (inactive) and the GI50 [38] was > 10 µM (inactive). The GI50 [39] was > 10 µM (inactive), the GI50 [40] was > 10 µM (inactive) and the GI50 [41] was > 10 µM (inactive). The GI50 [42] was > 10 µM (inactive), the GI50 [43] was > 10 µM (inactive) and the GI50 [44] was > 10 µM (inactive). The GI50 [45] was > 10 µM (inactive), the GI50 [46] was > 10 µM (inactive) and the GI50 [47] was > 10 µM (inactive). The GI50 [48] was > 10 µM (inactive), the GI50 [49] was > 10 µM (inactive) and the GI50 [50] was > 10 µM (inactive). For the same compound, the GI50 [51] was > 10 µM (inactive), the GI50 [52] was > 10 µM (inactive) and the GI50 [53] was > 10 µM (inactive). The GI50 [54] was > 10 µM (inactive), the GI50 [55] was > 10 µM (inactive) and the GI50 [56] was > 10 µM (inactive). The GI50 [57] was > 10 µM (inactive).
